One data set has as its system MG-63 cells. Nature of the data set: CCK-8 anti-proliferative assay, MG-63. Conditions: Homo sapiens, MG-63. Format: cell-based, human. Put shortly:
(§1)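 Growth inhibition was measured by CCK-8 in human cells seeded at 5,000 per well and treated at 70% confluency. Compound exposure spanned 1, 2, 4, 6, 8, 12, 16, 24 and 30 μM for designated durations at 37° C. Percent inhibition against vehicle control at OD 450 nm yielded median inhibitory concentrations.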
On the technique in general: Tetrazolium dyes change colour on reduction, which living cells bring about.

Another data set relates to SK-OV-3 cells. Nature of the data set: CCK-8 anti-proliferative assay, SK-OV-3. It is filed as cell-based, human. To be noted: Homo sapiens, SK-OV-3, co-incubated 48 h, read-out: Anti-proliferative activity (IC50 ± standard deviation) SK-OV-3. Put shortly:
(§2)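 CCK-8 viability assay: compounds at final 1, 2, 4, 6, 8, 12, 16, 24 and 30 μM (3 wells each) added once cultures of 5,000 cells/well reached 70% confluence at 37° C, 5% CO2.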

A further data set relates to BxPC-3 cells. Description: CCK-8 anti-proliferative assay, BxPC-3. Format: cell-based, human. Conditions: for IC50: Homo sapiens, BXPC-3, co-incubated 48 h, read-out: Anti-proliferative activity (IC50 ± standard deviation) BxPC-3. Put shortly:
as §1

The subject of data set [1] is embryonic lung fibroblasts (WI-38). Description: CCK-8 anti-proliferative assay, normal cells WI-38. Format: cell-based, human. To be noted: Homo sapiens, read-out: Anti-proliferative activity (IC50 ± standard deviation) WI-38. Put shortly: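 Cells seeded at 5,000/well were grown at 37° C. under 5% CO2 to 70% confluency, then exposed in triplicate to 1–30 μM compound (1, 2, 4, 6, 8, 12, 16, 24, 30 μM) for designated durations. CCK-8 was added for 1–4 h, OD read at 450 nm, and IC50 derived from inhibition versus control.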

Another data set relates to Hep G2 cells. Description: CCK-8 anti-proliferative assay, Hep G2. Format: cell-based, human. Conditions: Homo sapiens, HepG2, co-incubated 48 h, read-out: Anti-proliferative activity (IC50 ± standard deviation) Hep G2. Put shortly: as §1
The subject of a further data set is MCF-7 cells. Nature of the data set: CCK-8 anti-proliferative assay, MCF-7. It is filed as cell-based, human. Conditions: for IC50: Homo sapiens, MCF7, co-incubated 48 h, read-out: Anti-proliferative activity (IC50 ± standard deviation) MCF-7. Put shortly: as §2
The format of data set [2] is physicochemical. The procedure:
0.9% normal saline was added thereto to obtain a solution, which was sterilized under UV light for 30 min. Administration volume was 10 mL/kg per mouse. […]
A resulting mixture was sterilized under UV light for 30 min. Administration volume was 10 mL/kg per mouse.

For a further data set, the system named is UM-UC-3 cells. Description: CCK-8 anti-proliferative assay, UM-UC-3. It is filed as cell-based, human. Conditions: Homo sapiens, UMUC3, co-incubated 48 h, read-out: Anti-proliferative activity (IC50 ± standard deviation) UM-UC-3. Put shortly: as §2
A further data set relates to 143B cells. Description: CCK-8 anti-proliferative assay, 143B. It is filed as cell-based, human. Conditions: Homo sapiens, 143B. Put shortly: as §1
The next data set relates to PANC-1 cells. Description: CCK-8 anti-proliferative assay, PANC-1. It is filed as cell-based, human. Conditions: for IC50: Homo sapiens, PANC-1, co-incubated 48 h, read-out: Anti-proliferative activity (IC50 ± standard deviation) PANC-1. Put shortly: as §1
A further data set deals with 5637 cells. Description: CCK-8 anti-proliferative assay, 5637. It is filed as cell-based, human. To be noted: Homo sapiens. Put shortly:
as §2

For another data set, the system named is A549 cells. Nature of the data set: CCK-8 anti-proliferative assay, A549. It is filed as cell-based, human. To be noted: for IC50: Homo sapiens, A549, co-incubated 48 h, read-out: Anti-proliferative activity (IC50 ± standard deviation) A549. Put shortly: as §2
The next data set deals with J82 cells. Description: CCK-8 anti-proliferative assay, J82. Format: cell-based, human. Conditions: Homo sapiens, J82. Put shortly: as §2
Another data set has as its system T24 cells. Nature of the data set: CCK-8 anti-proliferative assay, T24. Conditions: Homo sapiens, T-24, co-incubated 48 h, read-out: Anti-proliferative activity (IC50 ± standard deviation) T24. It is filed as cell-based, human. Put shortly: as §1
In data set [3] the test system is immortalized ureteral epithelial cells (SV-HUC-1). Description: CCK-8 anti-proliferative assay, normal cells SV-HUC-1. It is filed as cell-based, human. To be noted: Homo sapiens, SV-HUC1, normal cells, co-incubated 48 h, read-out: Anti-proliferative activity (IC50 ± standard deviation) SV-HUC-1. Put shortly: as §2
The next data set has as its system HeLa cells. Nature of the data set: CCK-8 anti-proliferative assay, HeLa. To be noted: for IC50: Homo sapiens, HeLa, co-incubated 48 h, read-out: Anti-proliferative activity (IC50 ± standard deviation) HeLa. It is filed as cell-based, human. Put shortly:
as §2

Setting [4] is: read-out: IC50 values, osteosarcoma cells MG-63.
The mark [5] stands for this setting: read-out: IC50 values, osteosarcoma cells 143B.

“Also recorded” adds a separate entry of the source. Like-named read-outs stand apart in the source and are kept apart here.

With `CCc1cccc(CC)c1NC(=O)Nc1cccc(CNc2ncnc3cc(OC)c(OCCCCCCN4CCC(CN5CCN(c6ccccn6)CC5)CC4)cc23)c1` [Compound 8-2h, N-(3-(((7-methoxy-6-((6-(4-((4-(pyridin-2-yl)piperazin-1-yl)methyl)piperidin-1-yl)hexyl)oxy)quinazolin-4-yl)amino)methyl)phenyl)-N′-(2,6-diethylphenyl)urea], the IC50 (commonly the concentration needed to halve the response being measured) is 3.97 ± 0.26 µM in the data set with MG-63 cells (Table 11, co-incubated 48 h, read-out: Anti-proliferative activity (IC50 ± standard deviation) MG-63); less than 5 µM with MG-63 cells (setting [4]); 6.12 ± 0.55 µM in the data set on SK-OV-3 cells (Table 12); 3.66 ± 0.24 µM in the data set on BxPC-3 cells (Table 11); 9.58 ± 0.43 µM in data set [1] (WI-38, Table 13, co-incubated 48 h); 4.66 ± 0.38 µM in the data set on Hep G2 cells (Table 12). The IC50 in the data set on MCF-7 cells (Table 12) is 5.38 ± 0.35 µM; in the data set with UM-UC-3 cells (Table 10), 5.09 ± 0.35 µM; in the data set with 143B cells (Table 11, co-incubated 48 h, read-out: Anti-proliferative activity (IC50 ± standard deviation) 143B), 4.91 ± 0.36 µM; in the data set on 143B cells (setting [5]), less than 5 µM; with PANC-1 cells (Table 11), 4.88 ± 0.29 µM; with 5637 cells (Table 10, co-incubated 48 h, read-out: Anti-proliferative activity (IC50 ± standard deviation) 5637), 4.18 ± 0.22 µM. The IC50 in the data set with A549 cells (Table 13) amounted to 3.41 ± 0.26 µM; in the data set on J82 cells (Table 10, co-incubated 48 h, read-out: Anti-proliferative activity (IC50 ± standard deviation) J82) it was 4.42 ± 0.29 µM; with T24 cells (Table 10) it was 4.21 ± 0.36 µM; in data set [3] (Table 13), 9.53 ± 0.83 µM; in the data set with HeLa cells (Table 12), 3.29 ± 0.18 µM. In addition, the “Sensitivity of BxPC-3 / anti-proliferative activity against BxPC-3, in words” value in the data set with BxPC-3 cells was “significantly stronger anti-proliferative activity against BxPC-3 than positive control Sora; also recorded: heightened sensitivity; also recorded: very sensitive; also recorded: highly sensitive”. The “Solubility in co-solvents (PEG400+normal saline, PEG400+PBS, PEG400+5% dextrose injection)” value in data set [2] is listed as “superior solubility”. In addition, the “Sensitivity of PANC-1, in words” value with PANC-1 cells was “sensitive; also recorded: heightened sensitivity”. In the data set on A549 cells, the “Activity against A549 versus the 8-1 to 8-23 series, in words” value is recorded as “significantly enhanced activity against A549”. Also, in the data set on HeLa cells, the “Sensitivity of HeLa, in words” value is “sensitive”.
For `COc1cc2ncnc(NCc3cccc(NC(=O)Nc4ccc(C(C)(C)C)cc4)c3)c2cc1OCCCCCCN1CCN(CCN2CCOCC2)CC1` [Compound 8-1j, N-(3-(((7-methoxy-6-((6-(4-(2-morpholinoethyl)piperazin-1-yl)hexyl)oxy)quinazolin-4-yl)amino)methyl)phenyl)-N′-(4-tert-butylphenyl)urea], the concentration for half-maximal inhibition (IC50) with MG-63 cells (Table 7, co-incubated 48 h, read-out: Anti-proliferative activity (IC50 ± standard deviation) MG-63) is 4.17 ± 0.38 µM; in the data set on MG-63 cells (setting [4]) it was less than 5 µM; in the data set with SK-OV-3 cells (Table 9), 5.04 ± 0.32 µM; with BxPC-3 cells (Table 7), 6.53 ± 0.48 µM; in [1] (WI-38, Table 9, co-incubated 48 h), 10.3 ± 0.36 µM; in the data set with Hep G2 cells (Table 8), 3.83 ± 0.36 µM. In addition, the half-inhibitory concentration (IC50) was 3.25 ± 0.35 µM in the data set with MCF-7 cells (Table 8); 3.53 ± 0.39 µM with UM-UC-3 cells (Table 6); 3.43 ± 0.25 µM in the data set on 143B cells (Table 7, co-incubated 48 h, read-out: Anti-proliferative activity (IC50 ± standard deviation) 143B); less than 5 µM in the data set with 143B cells (setting [5]); 7.72 ± 0.66 µM with PANC-1 cells (Table 7); 3.29 ± 0.27 µM with 5637 cells (Table 6, co-incubated 48 h, read-out: Anti-proliferative activity (IC50 ± standard deviation) 5637). The IC50 stood at 3.29 ± 0.27 µM in the data set with 5637 cells (read-out: IC50 values against 5637 cells); 4.39 ± 0.34 µM with A549 cells (Table 8); 2.98 ± 0.27 µM in the data set with J82 cells (Table 6, co-incubated 48 h, read-out: Anti-proliferative activity (IC50 ± standard deviation) J82); 2.98 ± 0.27 µM with J82 cells (read-out: IC50 values against J82 cells); 4.57 ± 0.42 µM in the data set with T24 cells (Table 6); 8.03 ± 0.41 µM in [3] (Table 9). Moreover, the IC50 with HeLa cells (Table 8) was 4.33 ± 0.45 µM. Further, the “Sensitivity of BxPC-3 / anti-proliferative activity against BxPC-3, in words” value in the data set with BxPC-3 cells is recorded as “sensitive; also recorded: less sensitive”. The “Sensitivity of MCF-7, in words” value with MCF-7 cells was “sensitive”. The “Solubility in co-solvents (PEG400+normal saline, PEG400+PBS, PEG400+5% dextrose injection)” value in [2] was “superior solubility”. The “Solubility in the PEG400-0.9% normal saline mixture” value in data set [2] (PEG400:0.9% normal saline 3:1) was “desirable solubility”.
